In the kinase profiling compilation of Christmann-Franck et al. (2016):

How the values were obtained:
Assay in all cases: KINOMEscan competition binding
Conditions in all cases: compound 10.0 µM
ANKK1 (human) = ANKK1 (human) (UniProt Q8NFD2)
SIK3 (human) = SIK3 (human) (UniProt Q9Y2K2)
CaMK1 (human) = CaMK1 (human) (UniProt Q14012)
[1] = test system: EGFR (human), P00533 [746-750 del]
ROS1 (human) = ROS1 (human) (UniProt P08922)
ACVR2B (human) = ACVR2B (human) (UniProt Q13705)
AKT1 (human) = AKT1 (human) (UniProt P31749)
CHUK (human) = CHUK (human) (UniProt O15111)
NEK6 (human) = NEK6 (human) (UniProt Q9HC98)
RPS6KA3 KD1 (human) = RPS6KA3 KD1 (human) (UniProt P51812)
Sequence of RPS6KA3 KD1 (human) (P51812 whole entry, looked up): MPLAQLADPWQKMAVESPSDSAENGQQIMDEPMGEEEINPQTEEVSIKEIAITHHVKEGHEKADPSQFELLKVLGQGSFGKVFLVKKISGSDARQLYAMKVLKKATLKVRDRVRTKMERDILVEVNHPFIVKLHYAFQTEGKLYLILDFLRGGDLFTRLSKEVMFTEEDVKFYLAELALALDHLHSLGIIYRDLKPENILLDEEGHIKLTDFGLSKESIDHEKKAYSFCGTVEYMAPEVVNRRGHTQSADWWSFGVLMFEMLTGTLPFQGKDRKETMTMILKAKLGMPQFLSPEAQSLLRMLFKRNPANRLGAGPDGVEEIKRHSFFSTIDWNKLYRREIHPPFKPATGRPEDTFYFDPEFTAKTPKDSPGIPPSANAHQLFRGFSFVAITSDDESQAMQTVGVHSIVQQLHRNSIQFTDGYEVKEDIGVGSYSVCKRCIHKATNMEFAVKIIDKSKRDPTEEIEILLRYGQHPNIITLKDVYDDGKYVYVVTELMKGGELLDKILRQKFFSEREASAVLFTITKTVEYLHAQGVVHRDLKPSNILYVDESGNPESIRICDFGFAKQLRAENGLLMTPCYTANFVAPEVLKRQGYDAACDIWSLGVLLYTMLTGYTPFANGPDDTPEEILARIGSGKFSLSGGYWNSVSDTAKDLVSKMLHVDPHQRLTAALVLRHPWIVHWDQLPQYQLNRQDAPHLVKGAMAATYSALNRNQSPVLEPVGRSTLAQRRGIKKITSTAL

CSK (human) = CSK (human) (UniProt P41240)
RAF1 (human) = RAF1 (human) (UniProt P04049)
PIK3CG (human) = PIK3CG (human) (UniProt P48736)
MAP3K9 (human) = MAP3K9 (human) (UniProt P80192)
ACVR2A (human) = ACVR2A (human) (UniProt P27037)
STK32C (human) = STK32C (human) (UniProt Q86UX6)
HUNK (human) = HUNK (human) (UniProt P57058)
MAP4K2 (human) = MAP4K2 (human) (UniProt Q12851)
SGK110 (human) = SGK110 (human) (UniProt P0C264)
NEK11 (human) = NEK11 (human) (UniProt Q8NG66)
[2] = test system: EIF2AK4 KD2 (human), Q9P2K8 [S808G]
[3] = test system: KIT (human), P10721 [D816H]
Sequence of KIT (human), P10721 [D816H] (P10721 whole entry D816H, looked up): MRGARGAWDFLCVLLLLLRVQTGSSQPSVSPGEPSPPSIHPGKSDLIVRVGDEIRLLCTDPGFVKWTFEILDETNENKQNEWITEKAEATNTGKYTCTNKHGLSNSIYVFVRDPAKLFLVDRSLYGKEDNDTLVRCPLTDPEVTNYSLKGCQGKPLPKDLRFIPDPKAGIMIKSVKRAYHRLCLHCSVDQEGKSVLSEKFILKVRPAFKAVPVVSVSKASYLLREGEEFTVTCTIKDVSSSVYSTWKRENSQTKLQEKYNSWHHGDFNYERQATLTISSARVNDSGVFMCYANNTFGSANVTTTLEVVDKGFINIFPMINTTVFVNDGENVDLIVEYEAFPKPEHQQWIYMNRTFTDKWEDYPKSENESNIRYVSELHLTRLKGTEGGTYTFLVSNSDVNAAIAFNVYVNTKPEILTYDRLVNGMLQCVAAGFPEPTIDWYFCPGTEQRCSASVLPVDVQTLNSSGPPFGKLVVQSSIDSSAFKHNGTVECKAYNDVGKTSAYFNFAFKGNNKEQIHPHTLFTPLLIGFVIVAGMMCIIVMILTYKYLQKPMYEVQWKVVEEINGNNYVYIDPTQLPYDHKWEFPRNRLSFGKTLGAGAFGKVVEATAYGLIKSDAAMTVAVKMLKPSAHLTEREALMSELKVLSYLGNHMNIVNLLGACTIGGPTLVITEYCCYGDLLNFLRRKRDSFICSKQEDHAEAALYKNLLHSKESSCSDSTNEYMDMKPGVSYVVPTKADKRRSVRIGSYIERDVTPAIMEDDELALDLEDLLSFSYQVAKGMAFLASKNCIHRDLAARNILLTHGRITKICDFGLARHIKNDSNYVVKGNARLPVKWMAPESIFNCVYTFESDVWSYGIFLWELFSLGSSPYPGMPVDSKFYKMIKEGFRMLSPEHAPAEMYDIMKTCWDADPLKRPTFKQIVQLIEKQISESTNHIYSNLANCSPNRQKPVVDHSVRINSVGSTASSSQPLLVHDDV

TESK1 (human) = TESK1 (human) (UniProt Q15569)
[4] = test system: EGFR (human), P00533 [G719C]
CDK4 CCND1 (human) = CDK4 CCND1 (human) (UniProt P11802+P24385)
NTRK3 (human) = NTRK3 (human) (UniProt Q16288)
BRSK1 (human) = BRSK1 (human) (UniProt Q8TDC3)
TAOK2 (human) = TAOK2 (human) (UniProt Q9UL54)
Sequence of TAOK2 (human) (Q9UL54 whole entry, looked up): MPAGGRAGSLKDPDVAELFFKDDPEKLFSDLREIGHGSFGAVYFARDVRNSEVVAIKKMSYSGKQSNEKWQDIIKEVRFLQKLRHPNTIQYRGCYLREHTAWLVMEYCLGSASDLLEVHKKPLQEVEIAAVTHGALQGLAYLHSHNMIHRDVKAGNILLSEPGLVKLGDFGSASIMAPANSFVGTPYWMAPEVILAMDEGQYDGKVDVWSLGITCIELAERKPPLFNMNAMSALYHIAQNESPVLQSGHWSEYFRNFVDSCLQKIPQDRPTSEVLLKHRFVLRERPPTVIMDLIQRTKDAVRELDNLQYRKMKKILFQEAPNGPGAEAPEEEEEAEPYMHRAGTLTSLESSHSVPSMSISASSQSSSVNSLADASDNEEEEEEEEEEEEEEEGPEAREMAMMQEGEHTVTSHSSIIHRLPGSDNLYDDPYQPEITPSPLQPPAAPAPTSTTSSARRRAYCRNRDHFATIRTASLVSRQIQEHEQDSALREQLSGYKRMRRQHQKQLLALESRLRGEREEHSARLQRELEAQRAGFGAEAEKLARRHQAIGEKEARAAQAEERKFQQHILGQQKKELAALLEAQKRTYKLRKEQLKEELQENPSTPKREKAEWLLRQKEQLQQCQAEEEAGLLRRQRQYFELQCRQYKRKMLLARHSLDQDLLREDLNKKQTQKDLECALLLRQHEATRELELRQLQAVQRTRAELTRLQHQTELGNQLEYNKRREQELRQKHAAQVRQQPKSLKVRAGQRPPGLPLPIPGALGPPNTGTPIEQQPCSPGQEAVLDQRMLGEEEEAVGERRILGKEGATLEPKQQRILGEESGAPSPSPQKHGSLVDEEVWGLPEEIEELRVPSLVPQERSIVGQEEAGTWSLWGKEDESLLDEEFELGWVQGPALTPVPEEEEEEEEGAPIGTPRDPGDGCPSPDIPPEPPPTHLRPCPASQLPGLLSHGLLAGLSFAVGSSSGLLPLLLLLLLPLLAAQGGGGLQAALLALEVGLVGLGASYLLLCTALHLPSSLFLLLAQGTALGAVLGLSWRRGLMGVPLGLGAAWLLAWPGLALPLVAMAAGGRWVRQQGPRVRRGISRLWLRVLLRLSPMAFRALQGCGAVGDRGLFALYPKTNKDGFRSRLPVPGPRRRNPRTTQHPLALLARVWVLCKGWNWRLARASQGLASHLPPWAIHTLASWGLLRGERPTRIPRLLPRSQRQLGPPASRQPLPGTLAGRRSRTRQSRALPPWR

[5] = test system: ABL1 (human), P00519 [Y253F]
STK25 (human) = STK25 (human) (UniProt O00506)
MAP3K10 (human) = MAP3K10 (human) (UniProt Q02779)
EPHA5 (human) = EPHA5 (human) (UniProt P54756)
MAPK1 (human) = MAPK1 (human) (UniProt P28482)
RPS6KA5 KD1 (human) = RPS6KA5 KD1 (human) (UniProt O75582)
Sequence of RPS6KA5 KD1 (human) (O75582 whole entry, looked up): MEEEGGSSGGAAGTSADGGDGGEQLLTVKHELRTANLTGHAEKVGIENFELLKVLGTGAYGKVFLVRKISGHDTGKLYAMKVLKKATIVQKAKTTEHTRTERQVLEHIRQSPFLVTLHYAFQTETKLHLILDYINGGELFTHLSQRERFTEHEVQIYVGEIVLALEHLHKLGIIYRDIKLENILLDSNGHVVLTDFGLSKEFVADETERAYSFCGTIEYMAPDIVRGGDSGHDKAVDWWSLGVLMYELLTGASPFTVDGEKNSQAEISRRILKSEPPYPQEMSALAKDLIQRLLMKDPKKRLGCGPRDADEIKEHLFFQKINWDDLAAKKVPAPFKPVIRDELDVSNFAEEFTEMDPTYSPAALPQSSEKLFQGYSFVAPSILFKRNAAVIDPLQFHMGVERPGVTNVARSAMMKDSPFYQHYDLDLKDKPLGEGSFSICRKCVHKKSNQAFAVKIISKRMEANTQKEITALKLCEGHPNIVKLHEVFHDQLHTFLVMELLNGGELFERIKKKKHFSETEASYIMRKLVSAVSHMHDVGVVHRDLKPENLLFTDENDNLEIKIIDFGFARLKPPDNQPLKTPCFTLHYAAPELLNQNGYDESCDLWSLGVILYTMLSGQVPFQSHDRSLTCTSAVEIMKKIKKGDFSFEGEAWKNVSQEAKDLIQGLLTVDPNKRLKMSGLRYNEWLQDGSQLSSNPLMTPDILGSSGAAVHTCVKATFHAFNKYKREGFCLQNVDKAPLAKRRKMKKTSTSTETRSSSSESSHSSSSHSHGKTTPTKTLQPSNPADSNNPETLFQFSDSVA

PAK1 (human) = PAK1 (human) (UniProt Q13153)
MKNK1 (human) = MKNK1 (human) (UniProt Q9BUB5)
LATS1 (human) = LATS1 (human) (UniProt O95835)
PAK4 (human) = PAK4 (human) (UniProt O96013)
Sequence of PAK4 (human) (O96013 whole entry, looked up): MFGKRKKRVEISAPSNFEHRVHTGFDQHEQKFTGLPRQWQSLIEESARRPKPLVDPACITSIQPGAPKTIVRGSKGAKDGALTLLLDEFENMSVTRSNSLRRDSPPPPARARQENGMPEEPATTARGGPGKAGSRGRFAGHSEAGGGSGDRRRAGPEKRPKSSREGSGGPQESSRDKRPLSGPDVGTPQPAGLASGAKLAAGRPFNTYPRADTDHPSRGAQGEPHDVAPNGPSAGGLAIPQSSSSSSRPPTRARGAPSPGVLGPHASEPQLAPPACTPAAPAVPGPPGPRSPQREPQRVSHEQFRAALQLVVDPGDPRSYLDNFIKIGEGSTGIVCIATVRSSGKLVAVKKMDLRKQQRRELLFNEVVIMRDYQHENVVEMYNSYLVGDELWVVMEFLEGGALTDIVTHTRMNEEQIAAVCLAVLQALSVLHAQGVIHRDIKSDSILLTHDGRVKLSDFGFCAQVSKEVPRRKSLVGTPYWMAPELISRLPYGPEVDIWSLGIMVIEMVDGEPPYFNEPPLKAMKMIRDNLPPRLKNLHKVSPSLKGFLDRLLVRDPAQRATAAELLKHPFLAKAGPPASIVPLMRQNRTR

CAMK2A (human) = CAMK2A (human) (UniProt Q9UQM7)
Sequence of CAMK2A (human) (Q9UQM7 whole entry, looked up): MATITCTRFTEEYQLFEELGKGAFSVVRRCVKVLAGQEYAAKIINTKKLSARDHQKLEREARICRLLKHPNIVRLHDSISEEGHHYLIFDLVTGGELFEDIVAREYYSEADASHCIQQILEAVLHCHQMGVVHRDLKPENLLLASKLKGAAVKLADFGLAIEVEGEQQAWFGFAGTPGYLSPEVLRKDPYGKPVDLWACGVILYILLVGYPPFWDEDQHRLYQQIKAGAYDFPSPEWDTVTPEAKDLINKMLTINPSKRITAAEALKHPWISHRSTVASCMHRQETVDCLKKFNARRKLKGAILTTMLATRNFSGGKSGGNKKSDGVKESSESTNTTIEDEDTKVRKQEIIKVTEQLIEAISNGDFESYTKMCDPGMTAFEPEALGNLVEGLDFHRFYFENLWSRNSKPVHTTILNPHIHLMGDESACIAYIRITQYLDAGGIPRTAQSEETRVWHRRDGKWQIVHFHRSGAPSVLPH

MYLK4 (human) = MYLK4 (human) (UniProt Q86YV6)
[6] = test system: EGFR (human), P00533 [L858R]

## COc1cc(C(=O)N2CCC(N3CCN(C)CC3)CC2)ccc1Nc1ncc2c(n1)N(C)c1ccccc1C(=O)N2C
ANKK1 (human)
  kinase still bound, per cent of control: 100%
SIK3 (human)
  kinase still bound, per cent of control: 100%
CaMK1 (human)
  kinase still bound, per cent of control: 55%
[1]
  kinase still bound, per cent of control: 72%
ROS1 (human)
  kinase still bound, per cent of control: 12%
ACVR2B (human)
  kinase still bound, per cent of control: 100%
AKT1 (human)
  kinase still bound, per cent of control: 79%
CHUK (human)
  kinase still bound, per cent of control: 100%
NEK6 (human)
  kinase still bound, per cent of control: 76%
RPS6KA3 KD1 (human)
  kinase still bound, per cent of control: 77%
CSK (human)
  kinase still bound, per cent of control: 90%
RAF1 (human)
  kinase still bound, per cent of control: 100%
PIK3CG (human)
  kinase still bound, per cent of control: 15%
MAP3K9 (human)
  kinase still bound, per cent of control: 93%
ACVR2A (human)
  kinase still bound, per cent of control: 100%
STK32C (human)
  kinase still bound, per cent of control: 100%
HUNK (human)
  kinase still bound, per cent of control: 100%
MAP4K2 (human)
  kinase still bound, per cent of control: 100%
SGK110 (human)
  kinase still bound, per cent of control: 62%
NEK11 (human)
  kinase still bound, per cent of control: 100%
[2]
  kinase still bound, per cent of control: 95%
[3]
  kinase still bound, per cent of control: 100%
TESK1 (human)
  kinase still bound, per cent of control: 82%
[4]
  kinase still bound, per cent of control: 100%
CDK4 CCND1 (human)
  residual activity: 100%
NTRK3 (human)
  kinase still bound, per cent of control: 100%
BRSK1 (human)
  kinase still bound, per cent of control: 81%
TAOK2 (human)
  kinase still bound, per cent of control: 65%
[5]
  kinase still bound, per cent of control: 89%
STK25 (human)
  kinase still bound, per cent of control: 68%
MAP3K10 (human)
  kinase still bound, per cent of control: 100%
EPHA5 (human)
  kinase still bound, per cent of control: 95%
MAPK1 (human)
  kinase still bound, per cent of control: 85%
RPS6KA5 KD1 (human)
  kinase still bound, per cent of control: 96%
PAK1 (human)
  kinase still bound, per cent of control: 95%
MKNK1 (human)
  kinase still bound, per cent of control: 50%
LATS1 (human)
  kinase still bound, per cent of control: 100%
PAK4 (human)
  kinase still bound, per cent of control: 94%
CAMK2A (human)
  kinase still bound, per cent of control: 21%
MYLK4 (human)
  kinase still bound, per cent of control: 80%
[6]
  kinase still bound, per cent of control: 79%
